How the values were obtained:
human PHD2 (PHD2181-417) = biological target: T1, human PHD2 (PHD2181-417) (Homo sapiens, UniProt Q9GZT9); assay: PHD enzymatic assay ([14C]-succinic acid production); format: biochemical; conditions: PHD2181-417, HIF-1α peptide 10 μM, average of results; read-out: Enzyme pIC50 (converted)
T1 construct: Smt (SUMO) tag (cleaved yes); made in house; host or cells: E. coli BL21 (pBAD vector)
Method: Protein production was achieved by expression in BL21 cells grown in Terrific Broth containing 100 μg/ml ampicillin. Cell cultures were inoculated at 37° C. and grown to an OD600 of 0.8. Cultures were induced with 0.1% arabinose and grown overnight at 20° C. with continuous shaking at 225 rpm. Cells were then harvested by centrifugation and stored at −80° C. Cell pellets were suspended in Buffer A (50 mM Tris-HCl pH 7.2, 100 mM NaCl, 100 mM L-arginine, 1 mM TCEP, 0.05% (w/v) NP-40, 50 mM imidazole) followed by the addition of lysozyme and benzonase. Cells were lysed by sonication and the lysate was cleared by centrifugation (15,000 rpm, 90 min, 4° C.). The protein was purified by nickel affinity chromatography using a HisTrap Crude FF column (GE Healthcare). Samples were eluted in Buffer A with a 50-200 mM imidazole gradient. […] The flow-through was then dialyzed into 50 mM MES pH 6.0, 1 mM TCEP, 5 mM NaCl for ion exchange chromatography on a HiTrap SP Cation Exchange column (GE Healthcare). […] Fractions were pooled for further purification by size exclusion chromatography over a Superdex 75 Size Exclusion Column (GE Healthcare). Final protein was concentrated to 4 mg/ml and dialyzed in 10 mM PIPES pH 7.0, 100 mM NaCl, 0.5 mM TCEP.
(10 μM, California Peptide Research Inc., Napa, Calif.), and [5-^14C]-2-oxoglutaric acid (50 mCi/mmol, Moravek Chemicals, Brea, Calif.) in reaction buffer (40 mM Tris-HCl, pH 7.5, 0.4 mg/ml catalase, 0.5 mM DTT, 1 mM ascorbate) for 10 minutes. The reaction was stopped by addition of 50 μl of 70 mM H3PO4 and 50 μl of 500 mM NaH2PO4, pH3.2. Detection of [^14C]-succinic acid was achieved by separating from [5-^14C]-2-oxoglutaric acid by incubating the reaction mixture with 100 μl of 0.16 M DNP prepared in 30% perchloric acid. Next, 50 μl of unlabeled 20 mM 2-oxoglutaric acid/20 mM succinic acid, serving as carrier for the radioactivity, was added to the mixture, and was allowed to proceed for 30 minutes at room temperature. The reaction was then incubated with 50 μl of 1 M 2-oxoglutaric acid for 30 additional minutes at room temperature to precipitate the excess DNP. The reaction was then centrifuged at 2800×g for 10 minutes at room temperature to separate [^14C]-succinic acid in the supernatant from the precipitated [^14C]-dinitrophenylhydrazone. Fractions of the supernatant (400 μl) were counted using a beta counter (Beckman Coulter, Fullerton, Calif.).

Hep-3B cells = assay: Cellular assay: erythropoietin secretion in Hep-3B cells; format: cell-based, human; conditions: Homo sapiens, Hep3B, 100 μM compound, 24 hours, percent of EPO secretion relative to assay control compound 7-[(4-Chloro-phenyl)-(5-methyl-isoxazol-3-ylamino)-methyl]-quinolin-8-ol, read-out: Cellular % EPO Stimulation
Method: Hep-3B cells (ATCC, Manassas, Va.) were plated in 96-well plates at 20,000 cells per well in 100 μl of DMEM containing 10% fetal bovine serum, 1% non-essential amino acids, 50 IU/mL of penicillin and 50 μg/mL of streptomycin (all cell culture reagents from Invitrogen, Carlsbad, Calif.). Twenty-four hours after plating, compounds were added and incubated for an additional 24 hours. All compounds were tested under saturating conditions with final compound concentrations at 100 μM. Fifty microliters of the supernatant was then transferred to a human Hypoxia assay kit (Meso-Scale Discovery, Gaithersburg, Md.). Erythropoietin in the supernatant was detected according to the manufacturer's instructions as follows. EPO detection plates were blocked with 3% BSA in PBS overnight and 50 μl of the supernatant was incubated at room temperature in an orbital shaker for 2 h. Twenty-five microliters of 0.5 μg/ml anti-EPO detection antibody was added for 2 hours at room temperature in an orbital shaker. After 3 washes in PBS, 150 μl of 1× read buffer is added and the plate is then read on the MSD SECTOR instrument.

T1 sequence (Q9GZT9 181-417): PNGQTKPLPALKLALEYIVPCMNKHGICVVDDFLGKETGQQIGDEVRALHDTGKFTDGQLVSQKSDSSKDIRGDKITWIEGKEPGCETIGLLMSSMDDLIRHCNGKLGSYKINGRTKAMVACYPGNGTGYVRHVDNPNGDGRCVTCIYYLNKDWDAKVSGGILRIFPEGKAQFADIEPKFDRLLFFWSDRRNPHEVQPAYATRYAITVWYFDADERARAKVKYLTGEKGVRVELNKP

SMILES | IC50 (human PHD2 (PHD2181-417)) | Emax at 100 µM (Hep-3B cells)
O=C(O)c1cnn(-c2nc3ccc(Oc4cccc(F)c4)cc3c(=O)[nH]2)c1 [Example 34, 1-[6-(3-Fluoro-phenoxy)-4-oxo-3,4-dihydro-quinazolin-2-yl]-1H-pyrazole-4-carboxylic acid] | 25.1 nM | 73%
O=C(O)c1cnn(-c2nc3ccc(F)cc3c(=O)[nH]2)c1 [Example 4, 1-(6-Fluoro-4-oxo-3,4-dihydro-quinazolin-2-yl)-1H-pyrazole-4-carboxylic acid] | 39.8 nM | 15%
O=C(O)c1cnn(-c2nc3cc(-c4cccc(Cl)c4)ccc3c(=O)[nH]2)c1 [Example 186, 1-[7-(3-Chloro-phenyl)-4-oxo-3,4-dihydro-quinazolin-2-yl]-1H-pyrazole-4-carboxylic acid] | 50.1 nM | 26%
O=C(O)c1cnn(-c2nc3c(F)cc(Br)cc3c(=O)[nH]2)c1 [Example 130, 1-(6-Bromo-8-fluoro-4-oxo-3,4-dihydro-quinazolin-2-yl)-1H-pyrazole-4-carboxylic acid] | 79.4 nM | 12%
O=C(O)c1cnn(-c2nc3cc4c(cc3c(=O)[nH]2)CCC4)c1 [Example 140, 1-(4-Oxo-4,6,7,8-tetrahydro-3H-cyclopenta[g]quinazolin-2-yl)-1H-pyrazole-4-carboxylic acid] | 35.5 nM | 62%
O=C(O)c1cnn(-c2nc3ccc(-c4cccc(F)c4)cc3c(=O)[nH]2)c1 [Example 196, 1-[6-(3-Fluoro-phenyl)-4-oxo-3,4-dihydro-quinazolin-2-yl]-1H-pyrazole-4-carboxylic acid] | 39.8 nM | 92%
O=C(O)c1cnn(-c2nc3ccc(N4CCOCC4)cc3c(=O)[nH]2)c1 [Example 107, 1-(6-morpholin-4-yl-4-oxo-3,4-dihydro-quinazolin-2-yl)-1H-pyrazole-4-carboxylic acid] | 39.8 nM | 45%
O=C(O)c1cnn(-c2nc3ccc(NCc4ccccc4)cc3c(=O)[nH]2)c1 [Example 171, 1-(6-Benzylamino-4-oxo-3,4-dihydro-quinazolin-2-yl)-1H-pyrazole-4-carboxylic acid] | 25.1 nM | 34%
O=C(O)c1cnn(-c2nc3ccc(-c4cccc(OC(F)(F)F)c4)cc3c(=O)[nH]2)c1 [Example 205, 1-[4-Oxo-6-(3-trifluoromethoxy-phenyl)-3,4-dihydro-quinazolin-2-yl]-1H-pyrazole-4-carboxylic acid] | 25.1 nM | 58%
O=C(O)c1cnn(-c2nc3cc(I)ccc3c(=O)[nH]2)c1 [Example 208, 1-(7-Iodo-4-oxo-3,4-dihydro-quinazolin-2-yl)-1H-pyrazole-4-carboxylic acid] | 126 nM | 20%
Nc1ccc2nc(-n3cc(C(=O)O)cn3)[nH]c(=O)c2c1 [Example 180, 1-[6-amino-4-oxo-3,4-dihydro-quinazolin-2-yl]-1H-pyrazole-4-carboxylic acid] | 63.1 nM | 8%
Cc1cc2nc(-n3cc(C(=O)O)cn3)[nH]c(=O)c2cc1Oc1ccccc1 [Example 59, 1-(7-Methyl-4-oxo-6-phenoxy-3,4-dihydro-quinazolin-2-yl)-1H-pyrazole-4-carboxylic acid] | 25.1 nM | 80%
N#Cc1ccccc1CNc1ccc2nc(-n3cc(C(=O)O)cn3)[nH]c(=O)c2c1 [Example 177, 1-[6-(2-Cyano-benzylamino)-4-oxo-3,4-dihydro-quinazolin-2-yl]-1H-pyrazole-4-carboxylic acid] | 50.1 nM | 13%
Cc1cccc(C)c1Oc1ccc2nc(-n3cc(C(=O)O)cn3)[nH]c(=O)c2c1 [Example 42, 1-[6-(2,6-Dimethyl-phenoxy)-4-oxo-3,4-dihydro-quinazolin-2-yl]-1H-pyrazole-4-carboxylic acid] | 25.1 nM | 117%

Reference: patent US8937078B2, “Quinazolinones as prolyl hydroxylase inhibitors” (Janssen Pharmaceutica NV, priority 2009, dated 2015)
